The nature of series [1]: physchem. The settings on record: buffer, pH 7.4.
Description: GSK_TB: GSK in-house hydrophobicity assay at pH7.4 (logD)
Series [2] can be described thus: physchem. The settings on record: phosphate buffered saline, pH 7.4.
Series [3] in a line: physchem. The settings on record: octanol/water.
Description: GSK_TB: GSK in-house hydrophobicity assay (logP)
In series [4] the test system is Mycobacterium tuberculosis H37Rv. In words: microbe, parasite or virus in culture.
Description: GSK_TB: Intracellular minimum inhibitory concentration (MIC) H37Rv assay

Converted amounts (≈) assume the structure as drawn.

With `Cc1ccc(C(=O)Nc2nc(-c3ccccn3)cs2)s1`, in “physchem [1]”, the logD (commonly the decadic logarithm of the distribution of all forms, ionised or not, between an organic phase and buffer at a given pH) was determined as 4.6. Further, the solubility (kinetic) (usually the concentration staying in solution when a stock, usually in DMSO, is diluted into the medium) in “physchem [2]” came out at 15 µM (≈ 4.52 µg/mL). In addition, the log partition coefficient (logP) (usually a log measure of how a compound divides between an organic and an aqueous phase) in the series “physchem [3]” was found to be 4.61. The molecule further came in with an MIC90 in series [4] of 8.41 µM (≈ 2.54 µg/mL).
The corresponding values for `CC(Oc1ccccc1)C(=O)Nc1nc(-c2ccccn2)cs1` (stereo not given) are 5.07, 174 µM (≈ 56.6 µg/mL), 5.06 and 9.77 µM (≈ 3.18 µg/mL).
The matching figures for `O=C(Cc1ccc(F)cc1)Nc1nc(-c2ccccn2)cs1`: 4.32, 14 µM (≈ 4.39 µg/mL), 4.33 and 9.3 µM (≈ 2.91 µg/mL).
The corresponding values for `Cl.O=C(c1ccco1)N(CCCn1ccnc1)c1nc2c(Cl)cccc2s1` are 5.25, 21 µM, 5.63 and 8.41 µM.
In the case of `O=C(O)C(F)(F)F.c1ccc(C[C@H]2CN(c3nccc(Oc4ccc(-n5ccnc5)cc4)n3)CCN2)cc1`, in the series “physchem [1]”, the logD was 3.58. For the same molecule, the kinetic solubility in the series “physchem [2]” is 260 µM. For the same molecule, in “physchem [3]”, the logP was 4.33. This molecule also had an MIC90 in series [4] of 1.8 µM.
The matching figures for `O=C(c1cc2c(s1)CCC2)N1CCN(Cc2ccc3c(c2)OCO3)CC1`: 6.09, 117 µM (≈ 43.3 µg/mL), 6.34 and 5.3 µM (≈ 1.96 µg/mL).
In the series “physchem [1]”, `c1ccc(CCNc2cc(-c3ccccc3)nc3nncn23)cc1` gave a logD of 4.97. This molecule came in with a kinetic solubility in the series “physchem [2]” of 6 µM (≈ 1.89 µg/mL). Besides, the logP in “physchem [3]” was determined as 5.13. For the same molecule, in series [4], the MIC90 is 5.5 µM (≈ 1.73 µg/mL).
The matching figures for `O=C(O)C(F)(F)F.c1ccc2c(-c3ccc(CNCC4CCNC4)cc3)cncc2c1` (stereo not given): 1.52, 61 µM, 3.02 and 5.56 µM.
In turn, `Cc1cnc(N2CCN[C@@H](Cc3ccccc3)C2)nc1Oc1ccc(-n2ccnc2)cc1.O=C(O)C(F)(F)F` came in with a logD in “physchem [1]” of 4.04. Further, the kinetic solubility in the series “physchem [2]” is 228 µM. The molecule also returned a log partition coefficient (logP) in “physchem [3]” of 5.03. Moreover, the MIC90 in series [4] was 9.23 µM.
The corresponding values for `COc1ccc2cc(C(=O)Nc3ccc(C4CCN(C)CC4)cc3)sc2c1` are 3.11, 62 µM (≈ 23.6 µg/mL), 5.93 and 9.55 µM (≈ 3.63 µg/mL).
The corresponding values for `O=C(NCc1ccc(Oc2ccccc2)cc1)c1c(C(F)(F)F)nc2ccccn12` are 6.28, 1 µM (≈ 0.411 µg/mL), 6.58 and 0.2 µM (≈ 0.0823 µg/mL).
The matching figures for `Cc1nc2ccccn2c1C(=O)Nc1ccc(C(C)(C)C)cc1`: 5.81, 85 µM (≈ 26.1 µg/mL), 6.03 and 6.2 µM (≈ 1.91 µg/mL).
In the case of `O=C(C=Cc1cccs1)N1CCN(Cc2ccc(Br)s2)CC1`, in the series “physchem [1]”, the logD stood at 6.47. This molecule returned a kinetic solubility in the series “physchem [2]” of 152 µM (≈ 60.4 µg/mL). This molecule also yielded a logP in the series “physchem [3]” of 6.74. This molecule displayed an MIC90 in series [4] of 1.9 µM (≈ 0.755 µg/mL).
The matching figures for `CN1CCN(c2ccc(C(F)(F)F)cc2NC(=O)c2ccccn2)CC1`: 6.19, 182 µM (≈ 66.3 µg/mL), 6.84 and 1.91 µM (≈ 0.694 µg/mL).
The corresponding values for `Cc1ccc2nc(C(F)(F)F)c(C(=O)NCc3cccc(OC(C)C)c3)n2c1` are 6.19, 1 µM (≈ 0.391 µg/mL), 6.43 and 2.1 µM (≈ 0.822 µg/mL).
The matching figures for `O=C(NCc1ccccc1F)N1CCN(Cc2ccc(Br)s2)CC1`: 5.72, 60 µM (≈ 24.7 µg/mL), 5.93 and 6.6 µM (≈ 2.72 µg/mL).
Take `O=C(N[C@@H](Cc1ccccc1)C(=O)Nc1ccccc1N1CCOCC1)c1cccs1`: in “physchem [1]”, the pH-dependent lipophilicity (logD) was 5.53. This molecule returned a solubility (kinetic) in “physchem [2]” of 52 µM (≈ 22.6 µg/mL). In addition, in the series “physchem [3]”, the logP worked out at 5.78. Also, the MIC90 in series [4] amounted to 6.6 µM (≈ 2.87 µg/mL).
Consider `CSc1ccc(-c2nnc(NC(=O)c3ccc(Cl)s3)o2)cc1`, for which the logD in “physchem [1]” is 3.76. In the series “physchem [2]”, this molecule had a kinetic solubility of 67 µM (≈ 23.6 µg/mL). Further, the logP in the series “physchem [3]” is 6.07. The molecule further showed an MIC90 in series [4] of 6.61 µM (≈ 2.32 µg/mL).
The corresponding values for `OC1(c2ccccc2)Oc2ccccc2N=C1c1ccccc1` (stereo not given) are 6.09, 263 µM (≈ 79.3 µg/mL), 6.19 and 6.68 µM (≈ 2.01 µg/mL).
Molecule `COc1ccc(CC(=O)Nc2c(-c3cccs3)nc3cc(C)ccn23)cc1` returned a logD in “physchem [1]” of 3.95. Besides, the solubility (kinetic) in “physchem [2]” came out at 87 µM (≈ 32.8 µg/mL). The molecule also showed a logP in “physchem [3]” of 4.02. For the same molecule, the MIC90 in series [4] turned out to be 6.8 µM (≈ 2.57 µg/mL).
The matching figures for `Cc1ccc2nc(C(F)(F)F)c(C(=O)NCc3cc(Cl)cc(Cl)c3)n2c1`: 6.65, 1 µM (≈ 0.402 µg/mL), 7.04 and 0.9 µM (≈ 0.362 µg/mL).
Consider `Cc1ccc2nc(C(F)(F)F)c(C(=O)NCc3cccs3)n2c1`, for which the pH-dependent lipophilicity (logD) in “physchem [1]” amounted to 4.79. Also, the solubility (kinetic) in “physchem [2]” came to 17 µM (≈ 5.77 µg/mL). Further, the log partition coefficient (logP) in the series “physchem [3]” was 4.98. In series [4], this molecule displayed an MIC90 of 0.9 µM (≈ 0.305 µg/mL).
In turn, `CCOc1ccc(-c2nc(CNCCc3ccc(F)cc3)cs2)cc1.O=C(O)C(=O)O` came in with a log distribution coefficient (logD) in “physchem [1]” of 6.09. Besides, in “physchem [2]”, the kinetic solubility stood at 159 µM. In the series “physchem [3]”, this molecule registered a logP of 7.45. In addition, the MIC90 in series [4] amounted to 1.07 µM.
The corresponding values for `Cc1ccc2nc(C(F)(F)F)c(C(=O)NCc3ccc4c(c3)OCO4)n2c1` are 4.79, 22 µM (≈ 8.3 µg/mL), 4.98 and 1.1 µM (≈ 0.415 µg/mL).
The molecule `CCc1c(C)nc(-n2nc(C)cc2NC(=O)c2ccccc2SC)[nH]c1=O` registered a pH-dependent lipophilicity (logD) in “physchem [1]” of 5.63. Further, in the series “physchem [2]”, the solubility (kinetic) came to 1 µM (≈ 0.383 µg/mL). Further, in the series “physchem [3]”, the log partition coefficient (logP) was 6.48. In series [4], the MIC90 came to 1.15 µM (≈ 0.44 µg/mL).
The corresponding values for `Cc1ccc2nc(C)c(C(=O)NCc3ccco3)n2c1` are 3.02, 277 µM (≈ 74.6 µg/mL), 3.02 and 1.3 µM (≈ 0.35 µg/mL).
`CCN(Cc1ccc2c(c1)OCO2)C(=O)CSc1nc(NC)c2ccccc2n1` gave a log distribution coefficient (logD) in “physchem [1]” of 4.69. The molecule also gave a kinetic solubility in “physchem [2]” of 74 µM (≈ 30.4 µg/mL). The logP in the series “physchem [3]” is 4.83. For the same molecule, the MIC90 in series [4] stood at 2.8 µM (≈ 1.15 µg/mL).
The corresponding values for `CCc1ccc(Nc2nnc(SCc3cc(C)on3)s2)cc1` are 5.72, 1 µM (≈ 0.332 µg/mL), 5.98 and 2.8 µM (≈ 0.931 µg/mL).
The matching figures for `COc1ccc(-c2ccc(Nc3cccc(S(=O)(=O)CCNCCc4cccs4)c3)nc2)cn1`: 5.63, 1 µM (≈ 0.495 µg/mL), 5.83 and 7.59 µM (≈ 3.75 µg/mL).
The matching figures for `Cc1ccc2nc(C)c(C(=O)NCC(C)C)n2c1`: 3.39, 287 µM (≈ 70.4 µg/mL), 3.41 and 7.67 µM (≈ 1.88 µg/mL).
The molecule `Cc1ccc(SCCNC(=O)c2c(-c3ccccc3)noc2C)cc1` had a log distribution coefficient (logD) in the series “physchem [1]” of 6.37. For the same molecule, the kinetic solubility in the series “physchem [2]” turned out to be 50 µM (≈ 17.6 µg/mL). Moreover, the log partition coefficient (logP) in “physchem [3]” came to 6.68. The molecule also gave an MIC90 in series [4] of 7.76 µM (≈ 2.74 µg/mL).
On to `O=C(Nc1nc(-c2ccccn2)cs1)c1cncn1-c1ccccc1`, for which, in “physchem [1]”, the pH-dependent lipophilicity (logD) came to 3.39. In “physchem [2]”, this molecule came in with a solubility (kinetic) of 118 µM (≈ 41 µg/mL). The lipophilicity (logP) in “physchem [3]” came to 3.38. This molecule showed an MIC90 in series [4] of 7.94 µM (≈ 2.76 µg/mL).
The matching figures for `COc1ccc(-c2cc(NC(=O)c3ccc(F)cc3Cl)ccc2OC)cc1`: 6.28, 1 µM (≈ 0.386 µg/mL), 6.48 and 8.13 µM (≈ 3.14 µg/mL).
`O=C(NCc1cc(Cl)cc(Cl)c1)c1c(C(F)(F)F)nc2ccccn12` gave a logD in “physchem [1]” of 6.09. Besides, the solubility (kinetic) in the series “physchem [2]” came out at 1 µM (≈ 0.388 µg/mL). In addition, in the series “physchem [3]”, the logP is 6.48. Also, the MIC90 in series [4] worked out at 3.1 µM (≈ 1.2 µg/mL).
With `O=C(NCc1ccc2c(c1)OCO2)c1c(C(F)(F)F)nc2ccccn12`, the logD in the series “physchem [1]” worked out at 4.23. In the series “physchem [2]”, the kinetic solubility came out at 115 µM (≈ 41.8 µg/mL). The molecule further registered a log partition coefficient (logP) in “physchem [3]” of 4.38. In series [4], this molecule yielded an MIC90 of 3.3 µM (≈ 1.2 µg/mL).
The corresponding values for `CCc1ccc(C2CC(C(F)(F)F)n3ncc(C(=O)NCc4cccs4)c3N2)cc1` (stereo not given) are 6.99, 1 µM (≈ 0.434 µg/mL), 7.27 and 4.37 µM (≈ 1.9 µg/mL).
The matching figures for `Cn1ccnc1CNCCS(=O)(=O)c1cccc(Nc2ccc(-c3cccc(F)c3)cn2)c1`: 4.41, 64 µM (≈ 29.8 µg/mL), 4.62 and 4.68 µM (≈ 2.18 µg/mL).
The molecule `Cc1ccc2nc(C(F)(F)F)c(C(=O)NCc3ccc(C)o3)n2c1` yielded a pH-dependent lipophilicity (logD) in “physchem [1]” of 4.97. Moreover, the solubility (kinetic) in “physchem [2]” was determined as 259 µM (≈ 87.4 µg/mL). This molecule also showed a logP in “physchem [3]” of 5.18. The MIC90 in series [4] is 3.43 µM (≈ 1.16 µg/mL).
The corresponding values for `Fc1ccccc1-c1noc(N2CCN(Cc3ccc4c(c3)OCO4)CC2)n1` are 6.56, 10 µM (≈ 3.82 µg/mL), 6.94 and 5.2 µM (≈ 1.99 µg/mL).
Turning to `CC(C)c1ccc(-c2cncc(N3CCN(c4ccncc4)CC3)n2)cc1`, the logD in “physchem [1]” is 4.79. The same molecule displayed a solubility (kinetic) in “physchem [2]” of 89 µM (≈ 32 µg/mL). The molecule also yielded a log partition coefficient (logP) in the series “physchem [3]” of 6.74. Also, the MIC90 in series [4] is 8.32 µM (≈ 2.99 µg/mL).
For the molecule `CCn1c(=O)c(=O)[nH]c2cc(C(=O)Nc3ccccc3Nc3ccc(OC)cc3)ccc21`, the log distribution coefficient (logD) in “physchem [1]” was 3.67. This molecule also displayed a solubility (kinetic) in “physchem [2]” of 47 µM (≈ 20.2 µg/mL). The molecule also registered a logP in the series “physchem [3]” of 3.87. The MIC90 in series [4] turned out to be 8.4 µM (≈ 3.62 µg/mL).
The corresponding values for `Cc1ccc2nc(C(F)(F)F)c(C(=O)NCc3ccco3)n2c1` are 4.32, 159 µM (≈ 51.4 µg/mL), 4.48 and 3.89 µM (≈ 1.26 µg/mL).
The corresponding values for `N#Cc1nc(-c2ccccc2)oc1S(=O)(=O)c1ccc(Cl)cc1` are 7.12, 1 µM (≈ 0.345 µg/mL), 7.48 and 8.9 µM (≈ 3.07 µg/mL).
The corresponding values for `c1cncc(NCc2ccc(-c3cc4ccncc4cc3OC3CCNCC3)s2)c1` are 1.9, 167 µM (≈ 69.6 µg/mL), 4.23 and 8.61 µM (≈ 3.59 µg/mL).
Regarding `Cc1ccc2[nH]c(C3CCCNC3)c(-c3ccncc3)c2c1` (stereo not given), in the series “physchem [1]”, the logD is 2.18. The molecule also returned a kinetic solubility in the series “physchem [2]” of 267 µM (≈ 77.8 µg/mL). In “physchem [3]”, this molecule registered a logP of 3.72. The same molecule showed an MIC90 in series [4] of 7.67 µM (≈ 2.24 µg/mL).

(Values after ChEMBL document CHEMBL2095176, “GSK Tuberculosis Screening Data”.)
